Data from PubChem BioAssay AID743417 (Broad Institute, 2014).
Inconclusive results are not listed. The source made the active and inactive calls.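 Rule for the calls: active = compounds lowering the luciferase signal with a fitted half-maximal dose at most twice their top valid dose (cut at about 30 µM in these data); inconclusive = flat fits with moderate signal loss, or poor fits; inactive = the rest.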

These molecules were tested on Clone20 osteoblast Shn3 3'UTR firefly luciferase, 24 h (assay: Schnurri-3 3'UTR-luciferase signal suppressors – cell-based, Clone20 osteoblasts, luminescence, dry powder, set 2, dose response (AID 743417)).

SMILES	AC50
O=C1C(Br)=C(c2ccccc2)C(c2ccccc2)=C1c1ccccc1	0.46 µM
CCOC(=O)COc1ccc2ccccc2c1/C=C/[N+](=O)[O-]	5.2 µM
COc1ccc(-c2cc(C(F)(F)F)nc(S(C)(=O)=O)n2)cc1	4.46 µM
COc1ccccc1C(=O)Nc1nc2ccccc2[nH]1	0.868 µM
c1ccc(CC2CCN(c3ncnc4sccc34)CC2)cc1	0.362 µM
O=C1C=CC(O)(c2cc(=O)c3c(O)cc(O)cc3o2)C=C1	5.12 µM
CCOC(=O)C1(Cc2cccc(OC)c2)CCN(C/C=C/c2ccc(OC)cc2)CC1	4.75 µM
COc1ccc(NS(=O)(=O)c2ccc(-c3cnc(C4CC4)o3)cc2)cc1OC	1.33 µM
Cc1cc(Br)c2c(c1)/C(=C/C(=O)c1cccs1)C(=O)N2	19.9 µM
COc1ccccc1NC(=O)Cn1cc(C(=O)C2CC2)c2ccccc21	4.76 µM
CN(C)C1=NC[C@H](Cc2ccccc2)N1CCCC1CCCCC1	1.47 µM
Clc1ccc(C[n+]2cc(-c3ccccc3)n3c2CCCCC3)c(Cl)c1	1.2 µM
CCOc1cc(S(=O)(=O)NCc2ccncc2)ccc1Cl	< 0.26 µM
O=C(N[C@@H]1C/C=C\C[C@H](CC(=O)N(CCO)Cc2ccccc2)C(=O)NC[C@@H](c2ccccc2)OC1=O)OCC1c2ccccc2-c2ccccc21	4.5 µM
C=C1C(=O)O[C@H]2[C@H]1[C@H](OC(=O)CC(=O)O[C@@H]1C[C@@H](C)[C@@H]3C=CC(=O)[C@@]3(C)[C@H]3OC(=O)C(=C)[C@H]13)C[C@@H](C)[C@H]1C=CC(=O)[C@]12C	1.54 µM
CCC(=O)NC(C)c1cc(Cl)c2cccnc2c1O (stereo unspecified)	5.19 µM
CCCNc1nc2c(c(=O)n(C)c(=O)n2C)n1Cc1cccc(C)c1	1.91 µM
Nc1nnc(SCC(=O)Nc2ccc(N3CCOCC3)cc2)s1	16.8 µM
Cc1cc(Nc2cccc(Cl)c2)nc(NCc2ccccc2)n1	1.64 µM
Cc1ccc2nc(-c3cccc(SC4CCCCC4)c3)c(NCc3ccccc3)n2c1	3.53 µM
CC(=O)Nc1ccc(NC(=O)c2nc(S(=O)(=O)Cc3cccc(C)c3)ncc2Cl)cc1	0.528 µM
CC(=O)NC(c1ccc2ccccc2c1)c1ccc2cccnc2c1O (stereo unspecified)	0.422 µM
C[C@H]1CCC/C=C/[C@@H]2C[C@H](O)C[C@H]2[C@@H](O)/C=C/C(=O)O1	2.17 µM
CC(C)Cn1c(N)c(C(=O)COC(=O)CC23CC4CC(CC(C4)C2)C3)c(=O)n(C)c1=O	1.51 µM
O=C(Nc1nc(-c2ccccn2)cs1)c1ccc(Cl)s1	0.817 µM
COc1ccc(/C=C/C(=O)NC(=S)NNC(=O)c2cnccn2)cc1	15.5 µM

SMILES	AC50
Cn1cc(CN(CCO)Cc2cccs2)c(-c2cccc(Cl)c2)n1	3.25 µM
O=C(NCc1ccc2c(c1)OCO2)c1nc(S(=O)(=O)Cc2ccccc2F)ncc1Cl	5.19 µM
Cc1cc(C)n2nc(SCc3cccc(S(=O)(=O)N(C)C)c3)nc2n1	14 µM
O=C(Nc1cccc(S(=O)(=O)Nc2ccc(Cl)cc2)c1)c1ccc(Cl)nc1	0.606 µM
CCOC(=O)N1CCC(NC(=O)C2CCCN(Cc3nc(-c4cccc(C)c4)oc3C)C2)CC1 (stereo unspecified)	3.06 µM
CCCCNc1cc(C)nc(NCc2ccccc2)n1	0.719 µM
C=C1C(=O)[C@]23C[C@H]1CC[C@H]2[C@]1(C)[C@@H](OC(C)=O)CC[C@@](C)(C(=O)OC)[C@H]1C[C@@H]3OC(C)=O	5.99 µM
CC(C)(C)C(=O)Nc1cc(S(=O)(=O)N2CCCCC2)ccc1N1CCCCC1	23.1 µM
O=[N+]([O-])c1ccc(O)c(-c2cc(C(F)(F)F)nc(-c3ccccc3)n2)c1	2.73 µM
CC(C)C1C(=O)N(Cc2cn(CCC3OCCO3)nn2)CCS(=O)(=O)N1Cc1ccc(-c2ccc(Cl)c(Cl)c2)cc1 (stereo unspecified)	1.28 µM
COc1ccc(COc2ccccc2C(=O)NCc2ccccc2)cc1F	4.76 µM
COCCNc1nc(NCc2ccc(C(C)C)cc2)c2sccc2n1	3.95 µM
COC(=O)/C=C/S(=O)(=O)c1ccc(NC(C)=O)cc1	7.3 µM
CN(C)c1ncnc2c1C(c1ccccc1)C(C)(C)O2 (stereo unspecified)	> 70 µM (inactive)
CCCCN(c1nc2ccccc2nc1Cl)S(=O)(=O)c1ccc(C)cc1	7.22 µM
CCCCCCNC(=O)O[C@H]1Cn2c(=O)ccc(=O)n2[C@@H]2CN(S(=O)(=O)c3ccc(C)cc3)C[C@]12O	14.1 µM
Oc1c(C(Nc2cccc(C(F)(F)F)c2)c2ccncc2)ccc2cccnc12 (stereo unspecified)	5.8 µM
CCC(=O)NC(c1ccc(Cl)cc1Cl)c1ccc2cccnc2c1O (stereo unspecified)	1.19 µM
CCCCCOc1ccc(Br)cc1CSC(=N)N	1.47 µM
COc1ccc(NS(=O)(=O)c2ccc3ccccc3c2)c2ncccc12	4.82 µM
Nc1nonc1C(=O)NCCNCc1cc(Br)ccc1OCc1ccc(F)cc1	3.74 µM
O=c1c2ccccc2sc2ccc(C#CC3(O)CCCCC3)cc12	< 0.26 µM
Cc1ccc2[nH]c3c(N4CCc5ccccc5C4)ncnc3c2c1	1.18 µM
Cc1ccc(S(=O)(=O)Nc2cccc3ncccc23)s1	3.85 µM
COc1ccccc1NC(=O)c1nc(S(=O)(=O)Cc2ccccc2)ncc1Cl	0.492 µM
O=[N+]([O-])c1cc(CN2CCN(c3ccccc3)CC2)c(O)c2ncccc12	1.99 µM

SMILES	AC50
Cc1cccc(-c2noc(CN(C(=O)C(c3ccccc3)c3ccccc3)C(C)C)n2)c1	6.27 µM
O=C(c1nnsc1S(=O)(=O)c1ccc(Cl)cc1)N1CCOCC1	7.74 µM
Cc1ccc(S(=O)(=O)Nc2ccc(O)c3ncccc23)cc1	1.55 µM
O=C(OCn1ncc(Cl)c(Cl)c1=O)c1cccc(C(F)(F)F)c1	3.74 µM
CN1CCN(S(=O)(=O)c2ccc(N(C)Cc3ccc(C(F)(F)F)cc3)c([N+](=O)[O-])c2)CC1	6.3 µM
C=C1C(=O)[C@@]23[C@H](O)C[C@@H]4C(C)(C)CC[C@H](O)[C@]4(C)[C@@H]2C[C@H](O)[C@@H]1[C@H]3O	2.95 µM
COc1ccc(C(C(=O)NC2CCCCC2)N(C(=O)CCl)c2ccc(OC)cc2)cc1 (stereo unspecified)	5.56 µM
COCCOc1nc2c(c(=O)n(C)c(=O)n2C)n1Cc1cccc(OC)c1	2.23 µM
O=C(Nc1cccc(F)c1)c1cc(S(=O)(=O)NCCC2=CCCCC2)ccc1F	4.16 µM
CC1Cc2ccccc2N1Cc1cccc(S(=O)(=O)N(C)C)c1 (stereo unspecified)	33 µM
CCOc1cc(/C=C\[N+](=O)[O-])ccc1OCC(=O)Nc1ccccc1C	< 0.26 µM
S=C(NCCCCN(Cc1ccc(Cl)cc1)c1ccc(Br)cn1)NCCCc1cnc[nH]1	7.24 µM
CCC(C)[C@H]1CNC(=S)N1CCc1cc(C(F)(F)F)cc(C(F)(F)F)c1 (stereo partly specified)	21.6 µM
CCOC(=O)c1c(-c2ccccc2)oc2cc(CN(C)C)c(O)c(CN(C)C)c12	7.81 µM
COc1ccc(C(=O)/C=C/C(=O)N(CC(=O)NCCC(C)C)Cc2cccs2)c(O)c1	3.49 µM
COc1ccc(Nc2nc(N3CCCCC3)c3ccccc3n2)cc1	2.11 µM
Cn1nc(-c2ccc(OCC(=O)N3CCN(Cc4ccccc4)CC3)cc2)c2ccccc2c1=O	2.1 µM
CN(c1ccccc1)c1ccc(/C=C/[N+](=O)[O-])cc1	5.79 µM
Cc1ccc(-c2nc(-c3ccccn3)no2)cc1	1.96 µM
CCCCNc1c(-c2cccc(-c3ccc(OC)cc3)c2)nc2cc(C)ccn12	12 µM
Cc1cccc(C)c1-n1nnnc1C(c1cc2ccccc2o1)N1CCC(n2c(=O)[nH]c3ccccc32)CC1 (stereo unspecified)	3.05 µM
Cc1cccc2c(C(=O)N3CCN(c4ccccn4)CC3)cc(-c3cccc(Br)c3)nc12	6.48 µM
CCc1ccc(NC(=O)C2CCN(S(=O)(=O)c3ccc4c(c3)NC(=O)C(C)S4)CC2)cc1 (stereo unspecified)	7.08 µM
Cc1cc(S(=O)(=O)c2ccc([N+](=O)[O-])cn2)ccc1Br	3.69 µM
